# Measurements published in patent publication US20050112573A1, “Method of detecting toxic substance” (priority 2001, published 2005).
# Tested on: yeast genes (level of expressed mRNA)
# Test: DNA chip analysis of expressed mRNA of yeast genes after 2 h culture with a toxic chemical substance
# Assay type: cell-based, Saccharomyces cerevisiae S288C
# How it was run: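 Values are treated-to-control fluorescence ratios from a whole-yeast-genome DNA chip (65° C, over 12 h hybridization) using Cy3/Cy5-labelled cDNA from mRNA. Log-phase S288C cells in YPD at 25° C were exposed 2 h to a toxicant at sublethal, growth-inhibiting concentration.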
substance,measurement,setting,value
Na2As [(1)],The level of expressed mRNA in the presence of chemical substance/,"yeast gene YAL053W, ratio to control without chemical",0.9
same,The level of expressed mRNA in the presence of chemical substance/The level of expressed mRNA in the absence of chemical substance,yeast gene YAR010C,0.8
same,The level of expressed mRNA in the presence of chemical substance/The level of expressed mRNA in the absence of chemical substance,yeast gene YBL005W-A,1.0
same,The level of expressed mRNA in the presence of chemical substance/The level of expressed mRNA in the absence of chemical substance,yeast gene YBL041W,1.2
same,The level of expressed mRNA in the presence of chemical substance/The level of expressed mRNA in the absence of chemical substance,yeast gene YBL043W,1.2
same,The level of expressed mRNA in the presence of chemical substance/,"yeast gene YBL048W, ratio to control without chemical substance, 2 h culture",2.0
same,The level of expressed mRNA in the presence of chemical substance/The level of expressed mRNA in the absence of chemical substance,yeast gene YBL078C,2.3
same,The level of expressed mRNA in the presence of chemical substance/,"yeast gene YBL107C, ratio to control without chemical substance, 2 h culture",1.4
same,The level of expressed mRNA in the presence of chemical substance/in the absence of chemical substance,yeast gene YBR036C,0.8
same,The level of expressed mRNA in the presence of chemical substance/The level of expressed mRNA in the absence of chemical substance,yeast gene YBR214W,0.9
same,The level of expressed mRNA in the presence of chemical substance/in the absence of chemical substance,yeast gene YBR298C,1.1
same,The level of expressed mRNA in the presence of chemical substance/The level of expressed mRNA in the absence of chemical substance,yeast gene YCL020W,1.1
same,The level of expressed mRNA in the presence of chemical substance/The level of expressed mRNA in the absence of chemical substance,yeast gene YCL027W,0.7
same,The level of expressed mRNA in the presence of chemical substance/The level of expressed mRNA in the absence of chemical substance,yeast gene YCR004C,1.7
same,The level of expressed mRNA in the presence of chemical substance/The level of expressed mRNA in the absence of chemical substance,yeast gene YCR071C,1.1
same,The level of expressed mRNA in the presence of chemical substance/The level of expressed mRNA in the absence of chemical substance,yeast gene YCR088W,0.9
same,The level of expressed mRNA in the presence of chemical substance/The level of expressed mRNA in the absence of chemical substance,yeast gene YDL008W,1.1
same,The level of expressed mRNA in the presence of chemical substance/,"yeast gene YDL072C, ratio to control without chemical",1.3
same,The level of expressed mRNA in the presence of chemical substance/in the absence of chemical substance,yeast gene YDL078C,0.7
same,The level of expressed mRNA in the presence of chemical substance/,"yeast gene YDL204W, ratio to control without chemical",1.4
same,The level of expressed mRNA in the presence of chemical substance/in the absence of chemical substance,yeast gene YDL215C,1.0
same,The level of expressed mRNA in the presence of chemical substance/,"yeast gene YDL222C, ratio to control without chemical",0.9
same,The level of expressed mRNA in the presence of chemical substance/The level of expressed mRNA in the absence of chemical substance,yeast gene YDL238C,0.7
same,The level of expressed mRNA in the presence of chemical substance/The level of expressed mRNA in the absence of chemical substance,yeast gene YDR055W,1.7
same,The level of expressed mRNA in the presence of chemical substance/The level of expressed mRNA in the absence of chemical substance,yeast gene YDR084C,0.9
same,The level of expressed mRNA in the presence of chemical substance/The level of expressed mRNA in the absence of chemical substance,yeast gene YDR085C,1.9
same,The level of expressed mRNA in the presence of chemical substance/The level of expressed mRNA in the absence of chemical substance,yeast gene YDR104C,0.8
same,The level of expressed mRNA in the presence of chemical substance/The level of expressed mRNA in the absence of chemical substance,yeast gene YDR115W,1.3
same,The level of expressed mRNA in the presence of chemical substance/The level of expressed mRNA in the absence of chemical substance,yeast gene YDR259C,1.4
same,The level of expressed mRNA in the presence of chemical substance/in the absence of chemical substance,yeast gene YDR297W,1.5
same,The level of expressed mRNA in the presence of chemical substance/The level of expressed mRNA in the absence of chemical substance,yeast gene YDR315C,1.0
same,The level of expressed mRNA in the presence of chemical substance/,"yeast gene YDR330W, ratio to control without chemical substance, 2 h culture",0.8
same,The level of expressed mRNA in the presence of chemical substance/The level of expressed mRNA in the absence of chemical substance,yeast gene YDR358W,0.7
same,The level of expressed mRNA in the presence of chemical substance/in the absence of chemical substance,yeast gene YDR387C,0.8
same,The level of expressed mRNA in the presence of chemical substance/The level of expressed mRNA in the absence of chemical substance,yeast gene YDR388W,0.7
same,The level of expressed mRNA in the presence of chemical substance/,"yeast gene YDR411C, ratio to control without chemical substance, 2 h culture",0.9
same,The level of expressed mRNA in the presence of chemical substance/The level of expressed mRNA in the absence of chemical substance,yeast gene YDR432W,0.5
same,The level of expressed mRNA in the presence of chemical substance/The level of expressed mRNA in the absence of chemical substance,yeast gene YDR481C,0.7
same,The level of expressed mRNA in the presence of chemical substance/The level of expressed mRNA in the absence of chemical substance,yeast gene YDR510W,1.0
same,The level of expressed mRNA in the presence of chemical substance/,"yeast gene YDR511W, ratio to control without chemical substance, 2 h culture",1.3
same,The level of expressed mRNA in the presence of chemical substance/,"yeast gene YDR545W, ratio to control without chemical substance, 2 h culture",0.6
same,The level of expressed mRNA in the presence of chemical substance/,"yeast gene YEL001C, ratio to control without chemical",1.0
same,The level of expressed mRNA in the presence of chemical substance/The level of expressed mRNA in the absence of chemical substance,yeast gene YEL042W,0.6
same,The level of expressed mRNA in the presence of chemical substance/The level of expressed mRNA in the absence of chemical substance,yeast gene YEL066W,2.0
same,The level of expressed mRNA in the presence of chemical substance/,"yeast gene YER004W, ratio to control without chemical substance, 2 h culture",1.0
same,The level of expressed mRNA in the presence of chemical substance/,"yeast gene YER035W, ratio to control without chemical substance, 2 h culture",1.4
same,The level of expressed mRNA in the presence of chemical substance/The level of expressed mRNA in the absence of chemical substance,yeast gene YER039C,1.0
same,The level of expressed mRNA in the presence of chemical substance/,"yeast gene YER079W, ratio to control without chemical substance, 2 h culture",1.1
same,The level of expressed mRNA in the presence of chemical substance/,"yeast gene YER106W, ratio to control without chemical",1.3
same,The level of expressed mRNA in the presence of chemical substance/The level of expressed mRNA in the absence of chemical substance,yeast gene YER107C,0.9
same,The level of expressed mRNA in the presence of chemical substance/The level of expressed mRNA in the absence of chemical substance,yeast gene YER130C,0.9
same,The level of expressed mRNA in the presence of chemical substance/,"yeast gene YER158C, ratio to control without chemical substance, 2 h culture",1.2
same,The level of expressed mRNA in the presence of chemical substance/,"yeast gene YER163C, ratio to control without chemical substance, 2 h culture",1.1
same,The level of expressed mRNA in the presence of chemical substance/,"yeast gene YER175C, ratio to control without chemical substance, 2 h culture",0.9
same,The level of expressed mRNA in the presence of chemical substance/,"yeast gene YFL006W, ratio to control without chemical substance, 2 h culture",0.8
